# Laboratory results: patent US7145058B2, “Efficient method of preventing growth of microbial genetic transformant after transformation” (Council of Scientific and Industrial Research, priority 2002, dated 2006)
# What was measured:
# [1] = system: Agrobacterium tumefaciens; assay: Growth curve of Agrobacterium tumefaciens in liquid Yeast Mannitol Broth, optical density at 600 nm; format: cell-based; details: different concentrations of D-catechin of Acacia species
# Procedure: The growth of bacteria is measured spectrophotometrically. The variation of growth is measured for up to 48 hours at an interval of 6 hours each.
# Two strains of Agrobacterium tumefaciens viz. EHA105 (mild) and GV2260 (virulent) harbouring the antibiotic resistance genes for kanamycin or hygromycin and the reporter gus gene were inoculated from mother cultures of respective strains into 10–30 ml liquid modified Yeast Mannitol Broth with kanamycin or hygromycin. The cultures were incubated for 12–16 hr at 25–30° C. and 150–200 rpm in dark and harvested at 0.6–0.8 optical density at 600 nm for 1×10^9 cells/ml during log phase of bacterial growth. […] Measurement of optical density at 600 nm at regular 6 hr intervals for 0–48 hr and the mean of three readings were plotted for development of the growth curve.
# Crude mixture of catechins as well as caffeine at concentrations of 2–600 μg/ml were added to fresh cultures of Agrobacterium tumefaciens and maintained at 25–30° C. in dark at 150–200 rpm for 48 hr. The optical density was again measured at regular interval of 6 hr each for 0–48 hr for the plotting of the mean of the three readings in a linear graph in order to determine the effect of the crude mixture of catechins as well as caffeine at concentrations of 2–600 μg/ml on fresh cultures of Agrobacterium tumefaciens.
# [2] = system: guar tissues; details: cited from earlier work
# [3] = system: A. tumefaciens, supervirulent strain EHA101 (pEHA101/pGT100); details: 100 μg/ml, singly or in combination, 52 days in regeneration and elongation media; cited from earlier work
# [4] = system: cultured tissues of Vitis; details: cited from earlier work
# [5] = system: Agrobacterium; details: carbenicillin, cefotaxime, ticarcillin for Brassica, Solanum, Rubus respectively; cited from earlier work
# [6] = system: Sitka spruce somatic embryos; details: cited from earlier work
SMILES,phytotoxicity to guar explants [2],elimination of A. tumefaciens from the explants [3],elimination of residual Agrobacterium [5],also measured
Oc1cc(O)c2c(c1)OC(c1ccc(O)c(O)c1)C(O)C2 [D-catechin],–,–,–,growth of Agrobacterium tumefaciens [1]: promote and not inhibit the growth
CC1(C)S[C@@H]2[C@H](NC(=O)C(C(=O)O)c3ccccc3)C(=O)N2[C@H]1C(=O)O (some centres unmarked) [carbenicillin],phytotoxic,did not eliminate,none of the antibiotics tested succeeded in eliminating Agrobacterium,effect on plant regeneration [4]: inhibitory effects on plant regeneration; development of mature somatic embryos [6]: prevented the development of mature somatic embryos; reduction of early stage embryos [6]: > 90%; reduction of tissue growth [6]: 50%
"CC1(C)S[C@@H]2[C@H](NC(=O)[C@H](C(=O)O)c3ccsc3)C(=O)N2[C@H]1C(=O)O [ticaracillin, ticarcillin]",–,–,none of the antibiotics tested succeeded in eliminating Agrobacterium,–
CO[C@@]1(NC(=O)Cc2cccs2)C(=O)N2C(C(=O)O)=C(COC(N)=O)CS[C@@H]21 [cefoxitin],–,did not eliminate,–,–
CO/N=C(\C(=O)N[C@@H]1C(=O)N2C(C(=O)O)=C(COC(C)=O)CS[C@H]12)c1csc(N)n1 [cefotaxime],phytotoxic,did not eliminate,none of the antibiotics tested succeeded in eliminating Agrobacterium,effect on overall tissue growth [6]: no effect
